In patent US11174268B2, “Benzenesulfonamide compouds and their use as therapeutic agents” (Xenon Pharmaceuticals Inc., priority 2016, dated 2021):
Counter-ions that a name gives are not always drawn. Like-named read-outs stand apart in the source and are kept apart here.

Tests used:
[1] = biological target: NaV1.6 (Homo sapiens (Human), UniProt Q9UQD0); assay: Sodium Influx Assay (Flux), NaV1.6; type: cell-based; details: Trex HEK293 cells, ANG2 dye, inactivated state;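 further: Tetracycline-induced cells, compounds applied for one hour at room temperature with modulators holding channels open, IC50 from percent inhibition of sodium influx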
[2] = biological target: NaV1.5 (Homo sapiens (Human), UniProt Q14524); assay: Sodium Influx Assay (Flux), NaV1.5
NaV1.5, sequence (Q14524 other isoform, or with tags, fused parts or gaps): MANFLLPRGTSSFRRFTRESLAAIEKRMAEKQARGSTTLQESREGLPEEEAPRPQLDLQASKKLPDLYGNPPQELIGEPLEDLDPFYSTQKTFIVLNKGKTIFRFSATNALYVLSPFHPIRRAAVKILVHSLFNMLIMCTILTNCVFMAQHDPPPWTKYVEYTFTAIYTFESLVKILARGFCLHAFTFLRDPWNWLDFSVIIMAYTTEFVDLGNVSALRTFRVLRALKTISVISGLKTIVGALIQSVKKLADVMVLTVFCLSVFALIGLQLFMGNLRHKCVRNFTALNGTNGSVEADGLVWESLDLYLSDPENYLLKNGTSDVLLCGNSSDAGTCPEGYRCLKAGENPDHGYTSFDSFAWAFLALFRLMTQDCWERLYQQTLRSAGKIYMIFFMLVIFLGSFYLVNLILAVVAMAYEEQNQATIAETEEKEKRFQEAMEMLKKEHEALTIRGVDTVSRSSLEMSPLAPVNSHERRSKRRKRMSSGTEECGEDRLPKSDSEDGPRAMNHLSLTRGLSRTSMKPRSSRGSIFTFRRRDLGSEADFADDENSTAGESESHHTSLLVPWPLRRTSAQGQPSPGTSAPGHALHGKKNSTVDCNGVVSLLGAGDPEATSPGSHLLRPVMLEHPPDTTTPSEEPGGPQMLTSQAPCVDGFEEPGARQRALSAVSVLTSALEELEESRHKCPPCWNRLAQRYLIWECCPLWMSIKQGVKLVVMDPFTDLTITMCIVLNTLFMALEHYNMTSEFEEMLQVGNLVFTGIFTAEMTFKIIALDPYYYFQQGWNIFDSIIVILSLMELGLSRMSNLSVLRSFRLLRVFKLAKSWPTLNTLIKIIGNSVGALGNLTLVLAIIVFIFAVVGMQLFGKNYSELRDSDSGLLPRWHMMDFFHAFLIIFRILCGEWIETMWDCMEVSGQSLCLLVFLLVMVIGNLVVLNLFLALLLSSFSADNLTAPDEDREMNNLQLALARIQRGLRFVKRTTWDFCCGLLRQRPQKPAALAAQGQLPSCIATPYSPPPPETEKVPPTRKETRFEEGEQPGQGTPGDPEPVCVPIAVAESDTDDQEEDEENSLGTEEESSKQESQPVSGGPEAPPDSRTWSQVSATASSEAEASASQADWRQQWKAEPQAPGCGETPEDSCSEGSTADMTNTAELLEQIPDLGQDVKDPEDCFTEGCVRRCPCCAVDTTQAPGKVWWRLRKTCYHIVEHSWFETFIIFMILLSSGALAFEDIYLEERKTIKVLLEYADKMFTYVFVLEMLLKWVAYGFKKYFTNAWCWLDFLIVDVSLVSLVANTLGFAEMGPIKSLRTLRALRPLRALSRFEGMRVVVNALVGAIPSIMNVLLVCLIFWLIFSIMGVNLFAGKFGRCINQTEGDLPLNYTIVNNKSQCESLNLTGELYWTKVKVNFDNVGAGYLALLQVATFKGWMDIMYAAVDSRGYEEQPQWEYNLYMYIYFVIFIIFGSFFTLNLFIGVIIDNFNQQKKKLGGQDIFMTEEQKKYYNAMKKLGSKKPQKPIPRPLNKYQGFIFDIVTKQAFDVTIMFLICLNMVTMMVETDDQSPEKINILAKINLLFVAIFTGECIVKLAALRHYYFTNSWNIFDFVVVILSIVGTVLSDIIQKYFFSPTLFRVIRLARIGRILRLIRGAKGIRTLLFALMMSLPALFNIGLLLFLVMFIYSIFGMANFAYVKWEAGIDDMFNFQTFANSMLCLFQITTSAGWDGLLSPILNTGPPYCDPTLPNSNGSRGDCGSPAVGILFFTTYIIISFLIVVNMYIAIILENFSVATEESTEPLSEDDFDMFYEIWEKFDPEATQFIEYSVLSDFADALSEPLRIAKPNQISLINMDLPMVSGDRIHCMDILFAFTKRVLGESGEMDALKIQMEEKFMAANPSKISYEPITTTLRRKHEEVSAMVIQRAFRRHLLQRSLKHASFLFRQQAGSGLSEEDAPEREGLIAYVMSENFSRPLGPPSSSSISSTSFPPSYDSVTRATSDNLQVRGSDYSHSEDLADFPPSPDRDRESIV

[3] = biological target: NaV1.1 (Homo sapiens (Human), UniProt P35498); assay: Sodium Influx Assay (Flux), NaV1.1; type: cell-based; details: Trex HEK293 cells, ANG2 dye, inactivated state;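 further: channels co-expressed with human β1 subunit and held open by modulators, cells exposed to compounds for one hour at room temperature, IC50 from percent inhibition of influx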
[4] = read-out: Flux NaV1.5 IC50, Trex HEK293 cells, ANG2 dye, inactivated state

| IC50 [1] | IC50 [3] | Molecule | IC50 [2, 4] | IC50 [2] |
| --- | --- | --- | --- | --- |
| 8.6 µM | ≥ 30 µM | C[C@@H](Oc1ccc(S(=O)(=O)Nc2ncns2)cc1Cl)c1ccccc1 (racemic) [Example 87, (R) and (S)-3-chloro-4-(1-phenylethoxy)-N-(1,2,4-thiadiazol-5-yl)benzenesulfonamide] | – | 24.7 µM |
| 0.12 µM | 0.784 µM | CC[C@H](Nc1cc(F)c(S(=O)(=O)Nc2nccs2)cc1Br)c1ccccc1 [Example 1, (S)-5-bromo-2-fluoro-4-((1-phenylpropyl)amino)-N-(thiazol-2-yl)benzenesulfonamide] | 8.92 µM | – |
| 5.02 µM | 16 µM | C[C@H](Nc1cc(F)c(S(=O)(=O)Nc2nccs2)cc1Cl)c1cccc2ccccc12 [Example 2, (S)-5-chloro-2-fluoro-4-((1-(naphthalen-1-yl)ethyl)amino)-N-(thiazol-2-yl)benzenesulfonamide] | 8.25 µM | – |
| 0.679 µM | 3.38 µM | C[C@H](Nc1cc(F)c(S(=O)(=O)Nc2nccs2)cc1Cl)c1cccc(C(F)(F)F)c1 [Example 3, (S)-5-chloro-2-fluoro-N-(thiazol-2-yl)-4-((1-(3-(trifluoromethyl)phenyl)ethyl)amino)benzenesulfonamide] | 5.25 µM | – |
| 3.38 µM | 3.76 µM | C[C@H](Nc1cc(F)c(S(=O)(=O)Nc2cscn2)cc1Cl)c1cccc(Cl)c1F [Example 6, (S)-5-chloro-4-((1-(3-chloro-2-fluorophenyl)ethyl)amino)-2-fluoro-N-(thiazol-4-yl)benzenesulfonamide] | 5.52 µM | – |
| – | – | O=S(=O)(Nc1cscn1)c1c(F)cc(NCc2c(F)cccc2CN2CC3(COC3)C2)cc1F [Example 153, 4-((2-((2-oxa-6-azaspiro[3.3]heptan-6-yl)methyl)-6-fluorobenzyl)amino)-2,6-difluoro-N-(thiazol-4-yl)benzenesulfonamide formate] | 30 µM | – |
| – | – | O=S(=O)(Nc1cscn1)c1c(F)cc(NCc2c(F)cccc2CN2CCCC2)cc1F [Example 166, 2,6-difluoro-4-((2-fluoro-6-(pyrrolidin-1-ylmethyl)benzyl)amino)-N-(thiazol-4-yl)benzenesulfonamide formate] | 15.2 µM | – |
| – | – | COC1CN(Cc2cccc(F)c2CNc2cc(F)c(S(=O)(=O)Nc3cscn3)c(F)c2)C1 [Example 171, 2,6-difluoro-4-((2-fluoro-6-((3-methoxyazetidin-1-yl)methyl)benzyl)amino)-N-(thiazol-4-yl)benzenesulfonamide formate] | 16.8 µM | – |
| – | 6.45 µM | COc1ccc(F)c([C@H](C)Nc2cc(F)c(S(=O)(=O)Nc3cscn3)c(F)c2)c1 [Example 238, (S)-2,6-difluoro-4-((1-(2-fluoro-5-methoxyphenyl)ethyl)amino)-N-(thiazol-4-yl)benzenesulfonamide] | – | – |
| – | – | C[C@H](Nc1ccc(S(=O)(=O)Nc2cscn2)cc1C(F)(F)F)c1cc(F)ccc1F [Example 274, (S)-4-((1-(2,5-difluorophenyl)ethyl)amino)-N-(thiazol-4-yl)-3-(trifluoromethyl)benzenesulfonamide] | 4.6 µM | – |
| – | – | CCc1cc(S(=O)(=O)Nc2cscn2)c(F)cc1N[C@@H](C)c1cc(F)ccc1F [Example 297, (S)-4-((1-(2,5-difluorophenyl)ethyl)amino)-5-ethyl-2-fluoro-N-(thiazol-4-yl)benzenesulfonamide] | 8.63 µM | – |

| Molecule | IC50 [1] | IC50 [3] | IC50 [2, 4] | IC50 [2] |
| --- | --- | --- | --- | --- |
| 2,6-difluoro-4-((2-fluoro-6-((3-hydroxy-3-methylazetidin-1-yl)methyl)benzyl)amino)-N-(thiazol-4-yl)benzenesulfonamide formate [Example 169] | 0.011 µM | 6.38 µM | 29 µM | – |
| 4-((2-((3-(difluoromethyl)azetidin-1-yl)methyl)-6-fluorobenzyl)amino)-2,6-difluoro-N-(thiazol-4-yl)benzenesulfonamide formate [Example 168] | 0.12 µM | 17.7 µM | 21.7 µM | – |
